Assay results published in patent publication US20100196926A1, “Combined Method And Kit For The Sequential Measurement of (1) The Enzymatically Active Fraction And (2) The Total Amount Of An Enzyme” (UNIVERSITE DE LIEGE, priority 2007, published 2010).

Test system: activated equine neutrophils
Assay: Combined SIEFED-ELISA measurement of total and active MPO released by PMA-activated equine neutrophils pre-incubated with polyphenols
Type: cell-based, horse
Details: for inhibition percentage on total enzyme (MPO) release / inhibition percentage on MPO activity (active fraction of MPO released): 10^-5 M, neutrophils pre-incubated 10 min at 37° C., activated 30 min with 8×10^−7 M PMA, supernatant
Protocol: The primary antibody(2), that captures the enzyme (MPO 1), is a rabbit IgG (3 μg/ml). Standard enzyme (MPO) or unknown sample is incubated 2 h at 37° C. After washing, the (peroxidase) activity of the enzyme (MPO) is detected by adding 100 μl of a 10 μM H2O2 solution and 40 μM of Amplex® Red (8) (10-acetyl-3,7-dihydroxyphenoxazine; from Molecular Probes) in phosphate buffer (50 mM, pH 7.5). The fluorescence is read during 30 min (at 37° C.) at 590 nm with a Fluoroskan Ascent apparatus (Labsystems). The volumes of the primary antibody(2) and the sample put in the wells, are 200 μl. Controls (blank) and dilutions of the samples are established with dilution buffer.
Enhancement of fluorescence was obtained when adding a defined concentration of nitrites ions (about 10 mM) to the Amplex® Red solution (8). The fluorescence response obtained in this SIEFED steps (part) of the combined SIEFED-ELISA bioassay is directly proportional to the enzymatically active fraction of the enzyme (equine MPO) present in the sample.
After the SIEFED detection, a washing (0.9% NaCl solution containing 0.1% tween 20) is performed before starting the ELISA part of the combined method; the immobilized antibody(2)—antigen(1) complex is incubated (2 h, 37° C.) with an excess (5 μg/ml) of guinea pig IgG, the secondary antibody (4). After washing, a third antibody (5) produced against guinea pig IgG is added. This third IgG (5) (goat IgG) is labeled with alkaline phosphatase (6) and recognizes the “sandwich” complex “primary antibody (2)—MPO(1)—secondary antibody”(4). After washing, phosphatase activity is detected by incubation (30 min, 37° C., in the darkness) with a paranitrophenyl phosphate solution (phosphatase substrate, Sigma). The reaction is stopped with NaOH and the absorbance (405 nm) is measured with a Multiscan Ascent apparatus (Labsystem). All the volumes added into the wells comprise 100 μl, except for washing (300 μl) and for the substrate solution (200 μl). Controls (blank) and dilutions of the standard enzyme (MPO) and samples were established with dilution buffer [PBS (20 mM phosphate, 137 mM NaCl and 2.7 mM KCl pH 7.4) to which 5 g/L bovine serum albumin and 0.1% tween 20 were added].
Neutrophils isolated from citrated blood of healthy horses were counted, suspended in phosphate buffer saline (PBS) at pH 7.4 and incubated 10 min at 37° C. with curcumin or THC at the final concentration of 10^−4, 10^−5 or 10^−6 M. After incubation and centrifugation (1000×g, 10 min), the neutrophils were resuspended in PBS and activated 30 min with 8×10^−7 M phorbol myristate acetate (PMA) followed by centrifugation and active and total enzyme (MPO) measurement in the supernatant by the combined SIEFED-ELISA specific bioassay. The effects of polyphenols on total and active fraction of enzyme (MPO) released by stimulated neutrophils were studied by pre-incubation of neutrophils with the drugs at various concentrations, before the neutrophil stimulation.

Compound | inhibition percentage on total enzyme (MPO) release (ELISA part) [%] | inhibition percentage on MPO activity (active fraction of MPO released) (SIEFED part) [%] | effect on the total enzyme (MPO) released by activated neutrophils (10^−4, 10^−5 or 10^−6 M, PMA-activated equine neutrophils, ELISA part) | effect on the active fraction of the enzyme (MPO) released by activated neutrophils (10^−4, 10^−5 or 10^−6 M, PMA-activated equine neutrophils, SIEFED part)
COc1cc(CCC(=O)CC(=O)CCc2ccc(O)c(OC)c2)ccc1O [THC, Tetrahydrocurcumin] | 18 | 22 | – | –
COc1cc(/C=C/C(=O)CC(=O)/C=C/c2ccc(O)c(OC)c2)ccc1O [curcumin, Curcumin] | 44 | 60 | dose dependent inhibitory effects | dose dependent inhibitory effects
